16 compounds from patent publication US20140107109A1, “AMINO-DIHYDROTHIAZINE AND AMINO-DIOXIDO DIHYDROTHIAZINE COMPOUNDS AS BETA-SECRETASE ANTAGONISTS AND METHODS OF USE” (Amgen Inc., priority 2012, published 2014) can be followed below.

SMILES strings stand for the structures. Where two headings read alike, the source gives them in different places.

Experiment [1] concerns the target Beta Secretase enzyme (BACE1) (Homo sapiens, UniProt P56817). Kind of experiment: In vitro enzymatic BACE FRET assay. The experiment is classed as biochemical. The conditions noted are these: read-out: BACE1 FRET assay IC50. A digest of the protocol: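 Readout: dequenched fluorescence (ex 488 nm/[…]) after neutralizing with Tris buffer. Reactions, begun by adding 50 nM quenched peptide substrate spanning the BACE cleavage site, were incubated one hour at pH 4.2 in 0.05 M acetate with 100 uM genapol and 10% final DMSO.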

Experiment [2] concerns Aβ40 in conditioned medium of cells stably expressing Amyloid Precursor Protein (APP). Kind of experiment: In vitro BACE cell-based assay (HEK cell assay), Aβ40 sandwich ELISA. The following applies: Homo sapiens, HEK293. In a few lines: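 Aβ40 in conditioned medium was quantified by time-resolved fluorescence sandwich ELISA (pAb40 capture 3 h at 4 °C, biotin-6E10 detection 2 h at 4 °C) after 24 h compound exposure of APP-expressing cells. Doses spanned 10 points from 100 μM or 10 μM top, 0.1% DMSO; IC50 was derived from percent of control.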
For orientation: ELISA stands for enzyme-linked immunosorbent assay.

The target of a further experiment is T1, Cathepsin D (Cat D) (Homo sapiens, UniProt P07339).
T1 construct: Recombinant Cat D was expressed in CHO cells; made in house; host or cells: CHO cells
T1 sequence (P07339 65-412, species assumed): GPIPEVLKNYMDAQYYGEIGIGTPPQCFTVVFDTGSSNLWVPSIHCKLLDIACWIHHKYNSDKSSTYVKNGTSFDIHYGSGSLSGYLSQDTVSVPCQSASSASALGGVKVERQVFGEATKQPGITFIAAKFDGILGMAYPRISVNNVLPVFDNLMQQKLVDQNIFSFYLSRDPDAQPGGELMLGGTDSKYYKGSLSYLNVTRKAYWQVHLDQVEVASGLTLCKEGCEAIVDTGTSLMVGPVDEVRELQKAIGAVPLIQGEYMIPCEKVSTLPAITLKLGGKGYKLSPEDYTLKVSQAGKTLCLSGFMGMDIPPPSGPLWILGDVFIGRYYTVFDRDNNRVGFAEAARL
Kind of experiment: In vitro enzymatic Cathepsin D (Cat D) FRET assay. The following applies: read-out: CatD IC50. The experiment is classed as biochemical. A digest of the protocol: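 FRET read-out: a fluorophore/quencher-labelled peptide substrate is cleaved by 9 nM Cat D (recombinant, CHO-expressed) following a one-hour preincubation with inhibitor dilutions in DMSO. Tris buffer added to neutralize pH ends the reaction before fluorescence measurement.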

Chain of Beta Secretase enzyme (BACE1) (P56817 46-501): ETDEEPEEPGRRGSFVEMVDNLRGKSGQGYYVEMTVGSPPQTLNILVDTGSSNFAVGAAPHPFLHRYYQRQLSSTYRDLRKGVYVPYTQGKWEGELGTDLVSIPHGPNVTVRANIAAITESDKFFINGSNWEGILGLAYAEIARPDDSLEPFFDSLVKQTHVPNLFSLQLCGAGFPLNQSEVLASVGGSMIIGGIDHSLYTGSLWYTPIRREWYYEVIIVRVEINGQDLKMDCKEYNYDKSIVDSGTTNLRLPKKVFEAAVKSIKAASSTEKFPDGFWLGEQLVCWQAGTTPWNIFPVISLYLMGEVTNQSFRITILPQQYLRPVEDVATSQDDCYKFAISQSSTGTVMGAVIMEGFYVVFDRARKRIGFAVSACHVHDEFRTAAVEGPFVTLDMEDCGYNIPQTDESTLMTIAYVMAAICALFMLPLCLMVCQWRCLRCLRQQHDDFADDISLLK

As a reminder, the IC50 is the point on the concentration scale where inhibition reaches its midpoint. Regarding `Cc1cc(OC(F)F)cnc1C(=O)Nc1cnc(F)c([C@]2(C)CS(=O)(=O)C3(CC3)C(N)=N2)c1` [Example 454, N-(5-((6R)-8-amino-6-methyl-4,4-dioxido-4-thia-7-azaspiro[2.5]oct-7-en-6-yl)-6-fluoro-3-pyridinyl)-5-(difluoromethoxy)-3-methyl-2-pyridinecarboxamide], the IC50 was found to be 3.1 nM in experiment [1] (average IC50); 3.9 nM in experiment [2] (average IC50, HEK cells); 106000 nM on Cathepsin D (Cat D).

As for `CC1(C)C(N)=N[C@](C)(c2cc(NCc3nn(CC(F)(F)F)cc3Cl)ccc2F)CS1(=O)=O` [Example 108, (R)-5-amino-3-(5-(((4-chloro-1-(2,2,2-trifluoroethyl)-1H-pyrazol-3-yl)methyl)amino)-2-fluorophenyl)-3,6,6-trimethyl-3,6-dihydro-2H-1,4-thiazine 1,1-dioxide], the half-inhibitory concentration (IC50) in experiment [1] (average IC50, enzyme assay) was found to be 45.2 nM; in experiment [2] (average IC50, cell assay), 161 nM; on Cathepsin D (Cat D), 49800 nM.

Regarding `Cc1cc(Oc2ccc(F)c([C@]3(C)CS(=O)(=O)C(C)(C)C(N)=N3)c2)ncc1Cl` [Example 276, (5R)-5-(5-((5-chloro-4-methyl-2-pyridinyl)oxy)-2-fluorophenyl)-2,2,5-trimethyl-5,6-dihydro-2H-1,4-thiazin-3-amine 1,1-dioxide], the IC50 in experiment [1] (average IC50, enzyme assay) was found to be 2710 nM; in experiment [2] (average IC50, cell assay) it was 2630 nM; at Cathepsin D (Cat D), 421000 nM.

With `CCc1c(C(=O)Nc2ccc(F)c([C@]3(CF)CS(=O)(=O)C(C)(C)C(N)=N3)c2)nc2ccc(Cl)cn12` [Example 394, N-(3-((3S)-5-amino-3-(fluoromethyl)-6,6-dimethyl-1,1-dioxido-3,6-dihydro-2H-1,4-thiazin-3-yl)-4-fluorophenyl)-6-chloro-3-ethylimidazo[1,2-a]pyridine-2-carboxamide], the figures for the IC50 (in experiment [1]; in experiment [2]; on Cathepsin D (Cat D)) were 8.3 nM, 23.5 nM and over 14800 nM, respectively.

In the case of `CC1(C)C(N)=N[C@](CF)(c2cc(Nc3nccc4cc(C#N)cnc34)ccc2F)CS1(=O)=O` [Example 387, 8-((3-((3S)-5-amino-3-(fluoromethyl)-6,6-dimethyl-1,1-dioxido-3,6-dihydro-2H-1,4-thiazin-3-yl)-4-fluorophenyl)amino)-1,7-naphthyridine-3-carbonitrile], the IC50 in experiment [1] came out at 0.44 nM; in experiment [2], 5.3 nM; at Cathepsin D (Cat D) it was 117000 nM.

With `CC1(C)C(N)=N[C@](C)(c2cc(Nc3ncc(F)c4cc(C#N)cnc34)cnc2F)CS1(=O)=O` [Example 221, 8-((5-((3R)-5-amino-3,6,6-trimethyl-1,1-dioxido-3,6-dihydro-2H-1,4-thiazin-3-yl)-6-fluoro-3-pyridinyl)amino)-5-fluoro-1,7-naphthyridine-3-carbonitrile], the IC50 in experiment [1] (average IC50, enzyme assay) is 1.94 nM; in experiment [2] (average IC50, cell assay) it was 5.8 nM; on Cathepsin D (Cat D), 43100 nM.

In the case of `C=C(C)c1cc(Cl)cnc1C(=O)Nc1ccc(F)c([C@]2(C)CS(=O)(=O)C(C)(C)C(N)=N2)c1` [Example 194, (R)—N-(3-(5-amino-3,6,6-trimethyl-1,1-dioxido-3,6-dihydro-2H-1,4-thiazin-3-yl)-4-fluorophenyl)-5-chloro-3-(prop-1-en-2-yl)picolinamide], the IC50 turned out to be 5.18 nM in experiment [1] (average IC50, enzyme assay); 3.42 nM in experiment [2] (average IC50, HEK cell assay); 617000 nM at Cathepsin D (Cat D).

For the compound `COc1cc(F)c2c(Nc3ccc(F)c([C@]4(C)CS(=O)(=O)C(C)(C)C(N)=N4)c3)ncnc2c1` [Example 53, N-(3-((3R)-5-amino-3,6,6-trimethyl-1,1-dioxido-3,6-dihydro-2H-1,4-thiazin-3-yl)-4-fluorophenyl)-5-fluoro-7-methoxy-4-quinazolinamine], the IC50 in experiment [1] was determined as 739 nM; in experiment [2] (Aβ40, 24 h incubation), 399 nM; at Cathepsin D (Cat D), 320000 nM.

`Cc1cc(C(F)(F)F)cc(Oc2ccc(F)c([C@]3(C)CS(=O)(=O)C(C)(C)C(N)=N3)c2)n1` [Example 298, (5R)-5-(2-fluoro-5-((6-methyl-4-(trifluoromethyl)-2-pyridinyl)oxy)phenyl)-2,2,5-trimethyl-5,6-dihydro-2H-1,4-thiazin-3-amine 1,1-dioxide]: the half-inhibitory concentration (IC50) in experiment [1] (average IC50, enzyme assay) turned out to be 106 nM; in experiment [2] (average IC50, HEK cell assay) it was 737 nM; on Cathepsin D (Cat D), 547000 nM.

`CC1(C)C(N)=N[C@](C)(c2cc(Nc3nccc4nc(OCC(F)(F)F)cnc34)ccc2F)CS1(=O)=O` [Example 442, N-(3-((3R)-5-amino-3,6,6-trimethyl-1,1-dioxido-3,6-dihydro-2H-1,4-thiazin-3-yl)-4-fluorophenyl)-2-(2,2,2-trifluoroethoxy)pyrido[3,4-b]pyrazin-5-amine]: the IC50 in experiment [1] (average IC50, enzyme assay) is 3.22 nM; in experiment [2] (average IC50, cell assay), 31.9 nM; on Cathepsin D (Cat D), 389000 nM.

Consider `CC1(C)C(N)=N[C@](C)(c2cc(Nc3ncc(Br)c4cc(Cl)cnc34)ccc2F)CS1(=O)=O` [Example 188, (R)-5-amino-3-(5-((5-bromo-3-chloro-1,7-naphthyridin-8-yl)amino)-2-fluorophenyl)-3,6,6-trimethyl-3,6-dihydro-2H-1,4-thiazine 1,1-dioxide], for which the IC50 in experiment [1] (average IC50, enzyme assay) came to 0.83 nM; in experiment [2] (average IC50, cell assay), 59.7 nM; on Cathepsin D (Cat D), 213000 nM.

On to `COc1cnc2c(Nc3ccc(F)c([C@]4(C)CS(=O)(=O)C(C)(C)C(N)=N4)c3)nccc2n1` [Example 47, N-(3-((3R)-5-amino-3,6,6-trimethyl-1,1-dioxido-3,6-dihydro-2H-1,4-thiazin-3-yl)-4-fluorophenyl)-2-methoxypyrido[3,4-b]pyrazin-5-amine], for which the IC50 in experiment [1] was 2.9 nM; in experiment [2] (Aβ40, 24 h incubation), 5.6 nM; on Cathepsin D (Cat D) it was over 400000 nM.

As for `CC1(C)C(N)=N[C@](CF)(c2cc(NC(=O)c3cnc(OCC(F)(F)F)cn3)ccc2F)CS1(=O)=O` [Example 405, N-(3-((3S)-5-amino-3-(fluoromethyl)-6,6-dimethyl-1,1-dioxido-3,6-dihydro-2H-1,4-thiazin-3-yl)-4-fluorophenyl)-5-(2,2,2-trifluoroethoxy)-2-pyrazinecarboxamide], the IC50 amounted to 0.6 nM in experiment [1], 27 nM in experiment [2] and 576000 nM on Cathepsin D (Cat D).

`CC1(C)C(N)=N[C@](C)(c2cc(NC(=O)c3ncc(Cl)cc3Br)ccc2F)CS1(=O)=O` [Example 352, N-(3-((3R)-5-amino-3,6,6-trimethyl-1,1-dioxido-3,6-dihydro-2H-1,4-thiazin-3-yl)-4-fluorophenyl)-3-bromo-5-chloro-2-pyridinecarboxamide]: the IC50 was determined as 0.8 nM in experiment [1] (average IC50, enzyme assay); 0.9 nM in experiment [2] (average IC50, HEK cell assay); 410000 nM at Cathepsin D (Cat D).

Turning to `COc1cnc2c(Nc3ccc(F)c([C@@]4(C)N=C(N)C5(CCC5)S(=O)(=O)C4F)c3)nccc2n1` (stereo partly drawn) [Example 232, N-(3-((7R)-9-amino-6-fluoro-7-methyl-5,5-dioxido-5-thia-8-azaspiro[3.5]non-8-en-7-yl)-4-fluorophenyl)-2-methoxypyrido[3,4-b]pyrazin-5-amine], the IC50 in experiment [1] (average IC50, enzyme assay) was 13.1 nM; in experiment [2] (average IC50, cell assay) it was 78.4 nM; on Cathepsin D (Cat D), 303000 nM.

With `COc1cnc2c(Nc3ccc(F)c([C@]4(C)CS(=O)(=O)C5(CC5)C(N)=N4)c3)nccc2c1` [Example 86, (R)-8-Amino-6-(2-fluoro-5-((3-methoxy-1,7-naphthyridin-8-yl)amino)phenyl)-6-methyl-4-thia-7-azaspiro[2.5]oct-7-ene 4,4-dioxide], the IC50 in experiment [1] came to 13.6 nM; in experiment [2] (Aβ40, 24 h incubation), 8.2 nM; at Cathepsin D (Cat D), 160000 nM.
